From patent US20210369720A1, “SYNERGISTIC COMPOSITION HAVING NEUROPROTECTIVE PROPERTIES AND METHODS OF USE THEREOF” (Rutgers, The State University of New Jersey, priority 2018, published 2021)

Key:
Type in all cases: in vivo
Iba-1 = assay: Immunohistochemical staining of Iba-1 in the striatum, α-Syn PFF inoculated WT mice; details: EHT 12 mg/kg/day and/or caffeine 50 mg/kg/day, vs untreated α-Syn PFF inoculated group
Text: (§1) Thy1-α-synuclein transgenic mice (Syn^Tg) on BDF1 background overexpressing human wild-type α-synuclein under the control of the Thy1 promoter were maintained by mating heterozygous transgenic females with WT BDF1 males (Rockenstein E, et al. (2002) Differential neuropathological alterations in transgenic mice expressing alpha-synuclein from the platelet-derived growth factor and Thy-1 promoters. J Neurosci Res 68(5):568-578). BDF1 mice (mixed C57BL/6-DBA/2) were generated every three months by mating female C57BL/6 (The Jackson Laboratory) and male DBA/2 mice (Charles River). Experiments were performed with male transgenic mice and their WT littermates. […] Wild-type littermates received regular water and control chow. […] At two months of age, mice were inoculated with α-Syn PFF unilaterally in the striatum. These treatments continued throughout the experiment until animals were sacrificed. Mice were weighed and their food and water intake was quantified weekly. Animals were housed 2-5/cage in an AAALAC approved facility in a temperature- and humidity-controlled environment under a 12-hour light/dark cycle and were maintained on a diet of lab chow and water ad libitum. […]

Iba1 = assay: Immunohistochemical staining of Iba-1 in the striatum, Syn^Tg mice; details: EHT 12 mg/kg/day and/or caffeine 50 mg/kg/day until six months of age
Text: Neuroinflammation is one of the neuropathological features of PD and models of α-synucleinopathy including Syn^Tg mice (Lee K W, et al. (2011) Enhanced phosphatase activity attenuates alpha-synucleinopathy in a mouse model. J Neurosci 31(19):6963-6971).
Thy1-α-synuclein transgenic mice (Syn^Tg) on BDF1 background overexpressing human wild-type α-synuclein under the control of the Thy1 promoter were maintained by mating heterozygous transgenic females with WT BDF1 males (Rockenstein E, et al. (2002) Differential neuropathological alterations in transgenic mice expressing alpha-synuclein from the platelet-derived growth factor and Thy-1 promoters. J Neurosci Res 68(5):568-578). BDF1 mice (mixed C57BL/6-DBA/2) were generated every three months by mating female C57BL/6 (The Jackson Laboratory) and male DBA/2 mice (Charles River). Experiments were performed with male transgenic mice and their WT littermates. […] Wild-type littermates received regular water and control chow. […] Mice were weighed and their food and water intake was quantified weekly. […]
Vectastain elite ABC kit (Vector Laboratories, Burlingame, Calif.) and 3,3′-diaminobenzidine (Sigma-Aldrich) were used for amplifying and color development. […] For other stains, the whole microscopic field was analyzed. For p-α-Syn stains in the cortex, four matching regions in each of two sections per animal were counted.

MAP2 = assay: Immunofluorescence staining of MAP2 in the cortex, Syn^Tg mice; details: EHT 12 mg/kg/day and/or caffeine 50 mg/kg/day until six months of age
Text: as §1

[1] = tested on: phosphorylated α-synuclein (p-α-Syn); assay: Immunohistochemical staining of p-α-Syn, α-Syn PFF inoculated WT mice; details: EHT 12 mg/kg/day and/or caffeine 50 mg/kg/day
Text: Thy1-α-synuclein transgenic mice (Syn^Tg) on BDF1 background overexpressing human wild-type α-synuclein under the control of the Thy1 promoter were maintained by mating heterozygous transgenic females with WT BDF1 males (Rockenstein E, et al. (2002) Differential neuropathological alterations in transgenic mice expressing alpha-synuclein from the platelet-derived growth factor and Thy-1 promoters. J Neurosci Res 68(5):568-578). BDF1 mice (mixed C57BL/6-DBA/2) were generated every three months by mating female C57BL/6 (The Jackson Laboratory) and male DBA/2 mice (Charles River). Experiments were performed with male transgenic mice and their WT littermates. […] Wild-type littermates received regular water and control chow. […] At two months of age, mice were inoculated with α-Syn PFF unilaterally in the striatum. These treatments continued throughout the experiment until animals were sacrificed. Mice were weighed and their food and water intake was quantified weekly. Animals were housed 2-5/cage in an AAALAC approved facility in a temperature- and humidity-controlled environment under a 12-hour light/dark cycle and were maintained on a diet of lab chow and water ad libitum. All animal procedures were approved by the Rutgers-Robert Wood Johnson Medical School Institutional Animal Care and Use Committee and were performed according to the National Institutes of Health Guide for the Care and Use of Laboratory Animals.
α-Syn PFF solution was sonicated at 60% amplitude 30 times (0.5 sec on, 0.5 sec off). During the stereotactic surgery, two month old WT C57BL/6 mice were anesthetized by Ketamine/xylazine (90/4.5 mg/kg, i.p., Ketaset from Zoetis, and Anased from Akorn) and positioned in a digital stereotaxic apparatus (Stoelting, Wood Dale, Ill.). A midline sagittal incision was made in the scalp, and a hole was drilled in the skull over the right striatum according to the coordinates below. All injections were made using a Hamilton neuros syringe equipped with a 33 gauge needle and attached to a Quintessential Stereotaxic Injector (Stoelting, Wood Dale, Ill.). A total of 5∝g/2.5 ul of α-Syn PFF was infused in the dorsal striatum (+0.2 mm relative to Bregma, +2.0 mm from midline, +2.6 mm beneath the dura) at a delivery rate of 0.2∝l/min (61). The needle was kept in place for 5 min following the infusion to prevent reflux before withdrawing.
Immunohistochemical analyses were performed as described previously (Lee et al., 2011; 2012). Mice were perfused transcardially with PBS, and brains were removed and post-fixed in 10% formalin at 4° C. overnight. Fixed brains were then sectioned coronally in 30 am thickness using a cryostat and collected as sets of slices with the same interval. Free-floating sections were blocked by 1% BSA and 0.2% Triton X100 in PBS. Sections were then incubated with primary antibody overnight at 4° C. and biotinylated secondary antibody for 1 hour at room temperature.
Vectastain elite ABC kit (Vector Laboratories, Burlingame, Calif.) and 3,3′-diaminobenzidine (Sigma-Aldrich) were used for amplifying and color development. Images were captured by Nikon Eclipse 55i. Staining intensity and phosphorylated α-synuclein (p-α-Syn) aggregate counts were obtained by Image Pro Plus. Intensity calibration was set to the level of a blank area in each image. HSI (hue, saturation and intensity) was used for the color selection with the standard parameters of H: 0-30, S: 0-255 and I: 0-160. […]

dopamine = assay: Striatal dopamine content by HPLC-MS, α-Syn PFF inoculated WT mice; details: each compound alone, EHT 12 mg/kg/day or caffeine 50 mg/kg/day, vs untreated α-Syn PFF inoculated mice
Text: as §1

[2] = vs untreated α-Syn PFF inoculated mice

In the case of `CCCCCCCCCCCCCCCCCCCC(=O)NCCc1c[nH]c2ccc(O)cc12` [EHT, eicosanoyl-5-hydroxytryptamide], the “microglial activation (Iba-1) in the contralateral striatum” value (Iba-1) is reported as “only a partial effect that was statistically insignificant”, the “microglial activation (Iba-1) in the ipsilateral striatum” value (Iba-1) is reported as “only a partial effect that was statistically insignificant” and the “microglial activation (Iba1) in the striatum” value (Iba1) is reported as “partially but insignificantly attenuated”. The “MAP2 in the cortex (neuritic integrity)” value (MAP2) was “did not improve this profile”, the “p-α-Syn immunoreactivity in the ipsilateral nigra” value [1] was “less abundant” and the “p-α-Syn in the contralateral striatum” value [1, 2] was “partially but insignificantly reduced”. The “p-α-Syn in the ipsilateral striatum” value [1, 2] was “partially but insignificantly reduced” and the “dopamine (DA) content in lysates of the ipsilateral striatum, benefit in words” value (dopamine) was “did not have a significant benefit”.
